Data set [1] has as its system HSV II. The experiment in a line: Inhibition of cytopathic effects by HSV II in MA 104 cells (XTT). The class given is cell-based, HSV-2. Conditions: for IC50: Human alphaherpesvirus 2, MA104. As for the experimental part: Compounds were individually tested for activity against HSV-1 and/or HSV-2. HSV-2 (strain 414-92) was tested using MA 104 cells in the following assay protocol. 96-Well plates were seeded with 1×10^4 MA 104 cells per well using 200 μL minimal essential medium (MEM) containing 10% calf serum per well, and incubated overnight at 37° C. The compounds were dissolved in MEM Earle's Salts without serum. The medium was removed by aspiration and 100 μL MEM Earle's Salts without serum was added to the wells. Serial 3-fold dilutions of the compounds were prepared by serial transfer of 50 μL of medium from wells containing compound to wells lacking compound. The plates were incubated 15 minutes at 37° C. followed by addition of 100 PFU/well of virus in MEM Earle's Salts with 2% fetal bovine serum. The plates were then incubated at 37° C. for three days until approximately 90% of the cells in virus infected control wells containing no compound were killed. Following incubation, medium was aspirated and the wells were washed with sterile PBS. […] The results, shown in Table 6, were expressed as the IC50, the concentration (μM) that inhibits cell killing mediated by HSV-2 by 50%. […] The toxicity of the compounds were expressed as the CC50, the concentration that kills 50% of uninfected cells.
(In general: Protection from cytopathic effect is a common read-out in antiviral testing.)

The test system of data set [2] is herpes simplex virus, type 1 or 2 (HSV-1 and -2). The settings on record: cited from earlier work.
The test system of data set [3] is adenovirus. The settings on record: cited from earlier work.
In data set [4] the test system is vaccinia virus. Conditions: cited from earlier work.
For data set [5], the system named is varicella zoster virus (VZV). The settings on record: cited from earlier work.
Data set [6] is described as follows: Toxicity to uninfected MA 104 cells. Conditions: monkey, read-out: CC50, concentration that kills 50% of uninfected cells. The class given is cell-based.
Data set [7] has as its system HSV-2 (strain 414-92). The experiment in a line: Inhibition of HSV-2 mediated cell killing in MA 104 cells (crystal violet). The class given is cell-based. Conditions: Human alphaherpesvirus 2, MA104, 72 h, read-out: HSV-2 IC50, concentration that inhibits cell killing mediated by HSV-2 by 50%. As for the experimental part: Compounds were individually tested for activity against HSV-1 and/or HSV-2. HSV-2 (strain 414-92) was tested using MA 104 cells in the following assay protocol. 96-Well plates were seeded with 1×10^4 MA 104 cells per well using 200 μL minimal essential medium (MEM) containing 10% calf serum per well, and incubated overnight at 37° C. The compounds were dissolved in MEM Earle's Salts without serum. The medium was removed by aspiration and 100 μL MEM Earle's Salts without serum was added to the wells. Serial 3-fold dilutions of the compounds were prepared by serial transfer of 50 μL of medium from wells containing compound to wells lacking compound. The plates were incubated 15 minutes at 37° C. followed by addition of 100 PFU/well of virus in MEM Earle's Salts with 2% fetal bovine serum. The plates were then incubated at 37° C. for three days until approximately 90% of the cells in virus infected control wells containing no compound were killed. Following incubation, medium was aspirated and the wells were washed with sterile PBS. 100 μL 0.5% crystal violet in 20% methanol was then added to the wells for 5 minutes, aspirated and the wells were washed two or three times with distilled water. 200 μL of 0.01 N HCl was added to the wells and the absorbance of each well at 595 nm was determined. The results, shown in Table 6, were expressed as the IC50, the concentration (μM) that inhibits cell killing mediated by HSV-2 by 50%. […] The toxicity of the compounds were expressed as the CC50, the concentration that kills 50% of uninfected cells.

In data set [8] the test system is KOS strain of HSV-1. The experiment in a line: Activity against KOS strain of HSV-1 in VERO cells. The class given is cell-based. The settings on record: read-out: HSV-1 EC50, concentration that inhibits cell killing by 50%. On the procedure:
The compounds were also tested for activity against the KOS strain of HSV-1 in VERO cells. The results, shown in Table 7, were expressed as the EC50, the concentration (μM) that inhibits cell killing mediated by HSV-2 by 50%.

Data set [9] relates to HCMV. The experiment in a line: Activity against HCMV in tissue culture (NHDF cell line). The class given is cell-based. The settings on record: Human betaherpesvirus 5. The source says:
The title compound was synthesized using N^4 -benzoyl HPMPC diethyl ester tritylated at the hydroxyl group as a starting material. The starting material was detritylated using acetic acid and then converted to N^4 -benzoyl HPMPC using TMSBr. The resulting compound was converted to N^4 -benzoyl cHPMPC using DCC and morpholine in pyridine.

Data set [10] deals with human cytomegalovirus (HCMV). Conditions: in both humans and animals; cited from earlier work.
For data set [11] the following is noted: rhesus monkey, in vivo; cited from earlier work.
A short description of data set [12]: in vitro. The class given is cell-based. Conditions: monkey, ma 104 cells. As for the experimental part:
Compounds were individually tested for activity against HSV-1 and/or HSV-2. HSV-2 (strain 414-92) was tested using MA 104 cells in the following assay protocol. 96-Well plates were seeded with 1×10^4 MA 104 cells per well using 200 μL minimal essential medium (MEM) containing 10% calf serum per well, and incubated overnight at 37° C. The compounds were dissolved in MEM Earle's Salts without serum. The medium was removed by aspiration and 100 μL MEM Earle's Salts without serum was added to the wells. Serial 3-fold dilutions of the compounds were prepared by serial transfer of 50 μL of medium from wells containing compound to wells lacking compound. The plates were incubated 15 minutes at 37° C. followed by addition of 100 PFU/well of virus in MEM Earle's Salts with 2% fetal bovine serum. The plates were then incubated at 37° C. for three days until approximately 90% of the cells in virus infected control wells containing no compound were killed. Following incubation, medium was aspirated and the wells were washed with sterile PBS. 100 μL 0.5% crystal violet in 20% methanol was then added to the wells for 5 minutes, aspirated and the wells were washed two or three times with distilled water. 200 μL of 0.01 N HCl was added to the wells and the absorbance of each well at 595 nm was determined. […]

Data set [13] can be described thus: in vivo. Conditions: rhesus monkey, po.
Data set [14] can be described thus: Conversion in rat intestinal homogenate. The class given is in vitro ADME. The source says:
(§1) The cHPMPC pivaloyloxymethyl ester synthesis yields a racemic mixture at the phosphorus atom. The mixture was separated by HPLC into the two isomers which were then exposed to an rat intestinal homogenate or to a rat intestinal wash.

Data set [15] is described as follows: Conversion in rat intestinal wash. The class given is in vitro ADME. The settings on record: both phosphorus isomers.
Description: as §1

[16] abbreviates: MA 104 cells, HSV-2 strain 414-92, three days.
Setting [17] is: Human alphaherpesvirus 1, KOS strain of HSV-1, VERO cells.

Like-named read-outs stand apart in the source and are kept apart here.

Here are results for 26 molecules from US5717095A, “Nucleotide analogs” (Gilead Sciences, Inc., priority 1996, dated 1998).

`CCOC(=O)c1ccccc1OP(=O)(COCCn1cnc2c(N)ncnc21)Oc1ccccc1C(=O)OCC`: the “activity (inhibition of cytopathic effects)” value in [1] is listed as “active”.

Regarding `Nc1nc(N)c2ncn(C[C@@H](CO)OCP(=O)(O)O)c2n1` [(S)-HPMPDAP], the antiviral activity result in data set [2] is given as “active”.

Take `Nc1nc2c(ncn2C[C@@H](CO)OCP(=O)(O)O)c(=O)[nH]1` [(S)-HPMPG]: the antiviral activity entry in [2] was “active”.

As for `Nc1ncnc2c1ncn2C[C@H]1COP(=O)(O)CO1` [(S)-cyclic HPMPA], the antiviral activity result in data set [3], in data set [4], in [2] and in data set [5] was “active” in each case.

Consider `CC(NP(=O)(COCCn1cnc2c(N)ncnc21)NC(C)C(=O)OCc1ccccc1)C(=O)OCc1ccccc1` (stereo not shown) [Ex 1, bis(alanyl benzyl ester)PMEA], for which the CC50 at 72 h in [6] is greater than 100 µM. The IC50 in [7] (setting [16]) stood at 20 µM.

On to `Nc1ncnc2c1ncn2CCOCP(=O)(NC(Cc1ccccc1)C(=O)OCc1ccccc1)NC(Cc1ccccc1)C(=O)OCc1ccccc1` (stereo not shown) [Ex 2], for which the CC50 at 72 h in data set [6] amounted to 20 µM. For the same molecule, the IC50 in data set [7] (setting [16]) came out at 4 µM.

On to `Nc1ncnc2c1ncn2CCOCP(=O)(NCC(=O)OCc1ccccc1)NCC(=O)OCc1ccccc1` [Ex 4, bis(glycyl benzyl ester)PMEA], for which the CC50 at 72 h in data set [6] is greater than 100 µM. In addition, the IC50 in data set [7] (setting [16]) worked out at 60 µM.

Consider `CCOC(=O)C(C)NP(=O)(COCCn1cnc2c(N)ncnc21)NC(C)C(=O)OCC` (stereo not shown) [Ex 5], for which the CC50 at 72 h in data set [6] was greater than 100 µM. The IC50 in [7] (setting [16]) was greater than 100 µM.

Turning to `CCOC(=O)C(CC(C)C)NP(=O)(COCCn1cnc2c(N)ncnc21)NC(CC(C)C)C(=O)OCC` (stereo not shown) [Ex 6], the CC50 at 72 h in [6] is greater than 100 µM. Further, the EC50 in data set [8] (setting [17]) was 20 µM. Besides, the IC50 in data set [7] (setting [16]) came to 33 µM.

With `CCOC(=O)CNP(=O)(COCCn1cnc2c(N)ncnc21)NCC(=O)OCC` [Ex 7], the CC50 at 72 h in [6] was greater than 100 µM. In addition, the EC50 in data set [8] (setting [17]) was greater than 200 µM. In addition, in data set [7] (setting [16]), the IC50 was greater than 100 µM.

As for `CC(C)CC(NP(=O)(COCCn1cnc2c(N)ncnc21)NC(CC(C)C)C(=O)OC(C)(C)C)C(=O)OC(C)(C)C` (stereo not shown) [Ex 9], the CC50 at 72 h in [6] is greater than 100 µM. For the same molecule, the EC50 in data set [8] (setting [17]) worked out at 63 µM. In addition, the IC50 in [7] (setting [16]) was found to be 63 µM.

For `CC(NP(=O)(COCCn1cnc2c(N)ncnc21)NC(C)C(=O)OC(C)(C)C)C(=O)OC(C)(C)C` (stereo not shown) [Ex 10], the CC50 at 72 h in [6] is greater than 100 µM. For the same molecule, the EC50 in [8] (setting [17]) is greater than 200 µM. Further, the IC50 in data set [7] (setting [16]) was greater than 100 µM.

As to `CC(C)(C)OC(=O)CNP(=O)(COCCn1cnc2c(N)ncnc21)NCC(=O)OC(C)(C)C` [Ex 11], the CC50 at 72 h in [6] was greater than 100 µM. Besides, the EC50 in data set [8] (setting [17]) was greater than 200 µM. Further, the IC50 in data set [7] (setting [16]) was greater than 100 µM.

For the molecule `CCOC(=O)C(Cc1ccccc1)NP(=O)(COCCn1cnc2c(N)ncnc21)NC(Cc1ccccc1)C(=O)OCC` (stereo not shown) [Ex 12], the CC50 at 72 h in data set [6] came to 80 µM. In data set [7] (setting [16]), the IC50 came to 20 µM.

In [9], `Nc1ccn(C[C@@H](CO)OCP(=O)(O)O)c(=O)n1` [HPMPC] showed an IC50 of 0.4 µM. Further, the antiviral activity result in data set [10] and in data set [2] was “active” in each case.

For the molecule `O=C(Nc1ccn(C[C@H]2COP(=O)(O)CO2)c(=O)n1)c1ccccc1` [N^4 -benzoyl cHPMPC], the IC50 in data set [9] turned out to be 22 µM.

For `Nc1ncnc2c1ncn2CCOCP(=O)(O)O` [PMEA, reference compound], in data set [11], the Oral bioavailability was 2-4%. In data set [8] (Human alphaherpesvirus 1, Vero), the EC50 was 138 µM. In addition, the IC50 amounted to 21 µM in data set [7] and 19.3 µM in [1]. Besides, the CC50 in data set [12] was 2000 µM.

Consider `CCOc1ccccc1OP(=O)(COCCn1cnc2c(N)ncnc21)Oc1ccccc1OCC` [bis(2-ethoxyphenyl)PMEA, Bis(2-ethoxyphenyl)PMEA], for which the “activity (inhibition of cytopathic effects)” value in [1] is given as “active”.

`CN(C)c1cccc(OP(=O)(COCCn2cnc3c(N)ncnc32)Oc2cccc(N(C)C)c2)c1` [bis(3-dimethylaminophenyl)PMEA]: in data set [1], the “activity (inhibition of cytopathic effects)” value is “active”.

Consider `COc1cccc(OP(=O)(COCCn2cnc3c(N)ncnc32)Oc2cccc(OC)c2)c1` [bis(3-methoxyphenyl)PMEA], for which the “activity (inhibition of cytopathic effects)” value in data set [1] was “active”.

Take `Nc1ncnc2c1ncn2CCOCP(=O)(Oc1ccc(F)cc1)Oc1ccc(F)cc1` [bis(4-fluorophenyl)PMEA]: the “activity (inhibition of cytopathic effects)” value in data set [1] was “active”.

`CC(C)(C)C(=O)OCOP(=O)(COCCn1cnc2c(N)ncnc21)OCOC(=O)C(C)(C)C` [bis(POM)PMEA, reference compound] showed a CC50 in data set [12] greater than 10 µM. Further, the bioavailability in data set [13] is roughly 25%. Also, in [1], the “activity (inhibition of cytopathic effects)” value is reported as “active” and the IC50 was determined as 0.5 µM.

On to `Nc1ncnc2c1ncn2CCOCP(=O)(OCOC(=O)C12CC3CC(CC(C3)C1)C2)OCOC(=O)C12CC3CC(CC(C3)C1)C2` [bis(adamantoyl oxymethyl)PMEA, bis(adamantoyl oxymethyl)PMEA ester], for which, in data set [1], the “activity (inhibition of cytopathic effects)” value is listed as “active”.

Take `Nc1ncnc2c1ncn2CCOCP(=O)(Oc1ccccc1)Oc1ccccc1` [bis(phenyl)PMEA, Bis(phenyl)PMEA]: in data set [1], the “activity (inhibition of cytopathic effects)” value was “active”.

As to `CC(C)(C)C(=O)OCOP1(=O)CO[C@@H](Cn2ccc(N)nc2=O)CO1` (stereo partly shown) [cHPMPC pivaloyloxymethyl ester], the “metabolic conversion in homogenate” value is “converted to cHPMPC” in data set [14] (one of the two phosphorus isomers) and “converted to HPMPC pivaloyloxymethyl monoester” in data set [14] (the other phosphorus isomer). Besides, the “conversion in intestinal wash” value in [15] is recorded as “converted to HPMPC pivaloyloxymethyl monoester”.

Turning to `Nc1ncnc2c1ncn2CCOCP(=O)(O)Oc1ccccc1` [monophenylPMEA, monophenyl ester of PMEA], the “activity (inhibition of cytopathic effects)” value in [1] is on record as “active”.

Broadly, the bioavailability is dose-corrected exposure relative to a reference, in per cent. A high value points to much systemic uptake.
